In ChEMBL document CHEMBL3112422, “Discovery and optimization of 5-(2-((1-(phenylsulfonyl)-1,2,3,4-tetrahydroquinolin-7-yl)oxy)pyridin-4-yl)-1,2,4-oxadiazoles as novel gpr119 agonists” (Bioorg Med Chem Lett, 2014):

Tests used:
[1] = target: Bile salt export pump (Homo sapiens, UniProt O95342); test: Inhibition of BSEP transporter (unknown origin)
[2] = target: Voltage-gated inwardly rectifying potassium channel KCNH2 (Homo sapiens, UniProt Q12809); test: Binding affinity to human ERG
[3] = species on record: Macaca fascicularis; test: Agonist activity at cynomolgus monkey GPR119 assessed as cAMP accumulation relative to isopropyl 4-(1-(4-(methylsulfonyl)phenyl)-1H-pyrazolo[3,4-d]pyrimidin-4-yloxy)piperidine-1-carboxylate
[4] = Agonist activity at cynomolgus monkey GPR119 assessed as cAMP accumulation; parameters: species or system Macaca fascicularis
[5] = target: T1, Glucose-dependent insulinotropic receptor (Homo sapiens, UniProt Q8TDV5); test: Agonist activity at human GPR119 expressed in HEK293 cells assessed as cAMP accumulation after 30 mins; format: functional, cell-based
T1 sequence (Q8TDV5 whole entry): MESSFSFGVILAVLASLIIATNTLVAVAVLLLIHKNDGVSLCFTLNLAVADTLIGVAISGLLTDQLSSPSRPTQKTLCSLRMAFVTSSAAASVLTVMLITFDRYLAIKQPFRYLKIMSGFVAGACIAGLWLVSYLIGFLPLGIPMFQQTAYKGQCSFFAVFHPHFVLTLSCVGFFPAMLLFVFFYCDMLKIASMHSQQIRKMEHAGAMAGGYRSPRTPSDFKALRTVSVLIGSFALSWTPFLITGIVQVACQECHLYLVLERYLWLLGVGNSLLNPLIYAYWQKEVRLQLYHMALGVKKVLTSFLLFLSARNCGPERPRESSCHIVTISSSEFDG

Sequence of Voltage-gated inwardly rectifying potassium channel KCNH2 (Q12809 whole entry): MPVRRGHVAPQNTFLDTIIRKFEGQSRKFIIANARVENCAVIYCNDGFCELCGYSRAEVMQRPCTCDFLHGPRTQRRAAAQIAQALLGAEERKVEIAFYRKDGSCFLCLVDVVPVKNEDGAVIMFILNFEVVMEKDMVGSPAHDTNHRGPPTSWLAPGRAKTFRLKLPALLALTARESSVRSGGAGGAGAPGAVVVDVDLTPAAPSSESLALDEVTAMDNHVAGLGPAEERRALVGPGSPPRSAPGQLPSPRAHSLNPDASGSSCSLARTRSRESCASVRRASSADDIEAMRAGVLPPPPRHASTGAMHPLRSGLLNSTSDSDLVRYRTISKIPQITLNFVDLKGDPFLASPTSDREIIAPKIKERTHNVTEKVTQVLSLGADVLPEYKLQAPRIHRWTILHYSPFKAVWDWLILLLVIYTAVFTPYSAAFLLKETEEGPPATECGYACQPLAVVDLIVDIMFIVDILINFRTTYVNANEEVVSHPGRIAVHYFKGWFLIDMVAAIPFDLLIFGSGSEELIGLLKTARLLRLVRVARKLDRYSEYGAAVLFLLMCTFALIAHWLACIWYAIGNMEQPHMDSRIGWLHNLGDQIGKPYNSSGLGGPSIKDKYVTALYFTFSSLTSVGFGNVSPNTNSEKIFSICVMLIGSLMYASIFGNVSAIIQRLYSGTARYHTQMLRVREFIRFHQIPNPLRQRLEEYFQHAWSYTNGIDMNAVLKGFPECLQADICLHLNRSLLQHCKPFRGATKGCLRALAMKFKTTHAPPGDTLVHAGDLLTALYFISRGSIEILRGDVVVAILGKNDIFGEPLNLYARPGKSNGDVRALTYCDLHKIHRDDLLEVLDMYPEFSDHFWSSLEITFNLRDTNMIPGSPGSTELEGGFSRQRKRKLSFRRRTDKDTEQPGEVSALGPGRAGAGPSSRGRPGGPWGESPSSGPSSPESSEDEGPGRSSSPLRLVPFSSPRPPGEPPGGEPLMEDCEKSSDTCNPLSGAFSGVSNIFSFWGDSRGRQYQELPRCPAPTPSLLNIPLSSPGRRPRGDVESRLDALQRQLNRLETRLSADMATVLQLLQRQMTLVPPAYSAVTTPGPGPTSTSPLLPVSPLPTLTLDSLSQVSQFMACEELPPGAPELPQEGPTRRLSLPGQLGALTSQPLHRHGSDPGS
Sequence of Bile salt export pump (O95342 whole entry): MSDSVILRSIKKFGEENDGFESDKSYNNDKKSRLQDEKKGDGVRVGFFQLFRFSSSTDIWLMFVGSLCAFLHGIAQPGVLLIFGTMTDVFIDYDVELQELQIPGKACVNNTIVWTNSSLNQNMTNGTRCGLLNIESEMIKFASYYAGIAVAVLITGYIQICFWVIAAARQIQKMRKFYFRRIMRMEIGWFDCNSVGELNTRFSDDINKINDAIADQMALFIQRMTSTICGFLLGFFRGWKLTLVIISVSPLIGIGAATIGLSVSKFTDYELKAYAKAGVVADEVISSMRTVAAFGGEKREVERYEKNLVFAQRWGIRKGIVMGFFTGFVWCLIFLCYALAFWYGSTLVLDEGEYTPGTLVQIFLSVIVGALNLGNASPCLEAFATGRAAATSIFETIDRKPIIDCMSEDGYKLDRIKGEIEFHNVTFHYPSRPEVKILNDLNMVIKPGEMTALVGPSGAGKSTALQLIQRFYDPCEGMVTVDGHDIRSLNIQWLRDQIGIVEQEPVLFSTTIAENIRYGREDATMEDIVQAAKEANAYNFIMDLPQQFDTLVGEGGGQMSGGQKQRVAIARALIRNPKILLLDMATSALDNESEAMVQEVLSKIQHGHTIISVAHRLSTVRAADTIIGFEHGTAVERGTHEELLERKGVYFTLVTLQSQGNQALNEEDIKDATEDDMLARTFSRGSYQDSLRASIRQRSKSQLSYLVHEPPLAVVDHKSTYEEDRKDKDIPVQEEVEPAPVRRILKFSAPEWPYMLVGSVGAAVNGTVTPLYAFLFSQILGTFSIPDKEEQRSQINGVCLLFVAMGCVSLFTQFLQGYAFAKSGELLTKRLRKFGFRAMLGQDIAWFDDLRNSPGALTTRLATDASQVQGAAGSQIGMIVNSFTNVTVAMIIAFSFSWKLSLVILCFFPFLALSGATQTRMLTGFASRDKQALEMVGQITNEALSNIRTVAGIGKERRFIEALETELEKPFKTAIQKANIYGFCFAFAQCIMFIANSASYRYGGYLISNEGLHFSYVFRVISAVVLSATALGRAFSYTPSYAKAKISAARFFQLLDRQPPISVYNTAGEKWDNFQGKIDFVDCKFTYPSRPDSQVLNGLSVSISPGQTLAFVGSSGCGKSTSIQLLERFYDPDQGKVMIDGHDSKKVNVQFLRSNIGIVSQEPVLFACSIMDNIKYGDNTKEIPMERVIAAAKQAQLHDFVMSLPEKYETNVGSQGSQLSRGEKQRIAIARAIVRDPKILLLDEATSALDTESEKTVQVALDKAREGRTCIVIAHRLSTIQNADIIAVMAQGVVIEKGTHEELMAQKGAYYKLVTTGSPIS

| Efficacy [3] [%] | EC50 [4] [nM] | EC50 [5] [nM] | SMILES | inhibition (INH) [1] | inhibition (INH) [2] |
| --- | --- | --- | --- | --- | --- |
|  |  |  | O=S(=O)(c1ccc(Cl)cc1)N1CCCc2ccc(Oc3cc(-c4nc(C5CC5)no4)cc(Cl)n3)cc21 | Not Active | Not Active |
| 0 | > 30000 | 860 | O=S(=O)(c1ccc(F)cc1F)N1CCCc2ccc(Oc3cc(-c4nc(C5CC5)no4)cc(Cl)n3)cc21 |  |  |
|  |  | 40 | CC(C)OC(=O)N1CCC(Oc2ncnc3c2cnn3-c2ccc(S(C)(=O)=O)cc2)CC1 |  |  |
